Data reported in US20240158446A1, “CYCLIC COMPOUND HAVING SELECTIVE INHIBITORY ACTION ON KRAS OVER HRAS AND NRAS” (CHUGAI SEIYAKU KABUSHIKI KAISHA, priority 2021, published 2024).
Read-outs that look alike come from different tables or passages of the source. Where a SMILES comes first, the peptide text is derived from it. Bridges are numbered along the chain shown (N, C = ends). [ ]: non-standard residue; d: D form. The star is where a group is joined. hPhe(3-Cl-4-CF3) = N[C@@H](CCc1ccc(C(F)(F)F)c(Cl)c1)C(=O)O; NPrPhe(4-CF3) = CCCN[C@@H](Cc1ccc(C(F)(F)F)cc1)C(=O)O; NEtPhe(4-Me) = CCN[C@@H](Cc1ccc(C)cc1)C(=O)O; NMeGly(cPent) = CN[C@H](C(=O)O)C1CCCC1; Hyp = O=C(O)[C@@H]1C[C@@H](O)CN1; NMeI = CC[C@H](C)[C@H](NC)C(=O)O; NMeD = CN[C@@H](CC(=O)O)C(=O)O; NMeL = CN[C@@H](CC(C)C)C(=O)O; Morpholide = C1CN(*)CCO1; NMeA = CN[C@@H](C)C(=O)O; Ac5c = NC1(C(=O)O)CCCC1; Aze = O=C(O)[C@@H]1CCN1; Ac4c = NC1(C(=O)O)CCC1; NEtG = CCNCC(=O)O; Sar = CNCC(=O)O

Key:
[1] = biological target: GDP-bound KRAS wild-type protein (Homo sapiens, UniProt P01116); experiment: Binding to KRAS by surface plasmon resonance (SPR), Single Cycle Kinetics; settings: GDP-bound KRAS wild-type protein, read-out: KRAS KD
[2] = biological target: GDP-bound HRAS wild-type protein (Homo sapiens, UniProt P01112); experiment: Binding to HRAS by surface plasmon resonance (SPR), Single Cycle Kinetics; settings: SPR; for HRAS/KRAS (ratio of KD value for HRAS to KD value for KRAS) / HRAS/KRAS (ratio of KD value with respect to HRAS to KD value with respect to KRAS): GDP-bound HRAS wild-type protein vs GDP-bound KRAS wild-type protein
[3] = biological target: GDP-bound NRAS wild-type protein (Homo sapiens, UniProt P01111); experiment: Binding to NRAS by surface plasmon resonance (SPR), Single Cycle Kinetics; settings: SPR; for NRAS/KRAS (ratio of KD value for NRAS to KD value for KRAS) / NRAS/KRAS (ratio of KD value with respect to NRAS to KD value with respect to KRAS): GDP-bound NRAS wild-type protein vs GDP-bound KRAS wild-type protein
[4] = SPR Single Cycle Kinetics, 1:1 binding model
[5] = SPR, Single Cycle Kinetics, 1:1 binding model

GDP-bound NRAS wild-type protein, sequence (P01111 whole entry): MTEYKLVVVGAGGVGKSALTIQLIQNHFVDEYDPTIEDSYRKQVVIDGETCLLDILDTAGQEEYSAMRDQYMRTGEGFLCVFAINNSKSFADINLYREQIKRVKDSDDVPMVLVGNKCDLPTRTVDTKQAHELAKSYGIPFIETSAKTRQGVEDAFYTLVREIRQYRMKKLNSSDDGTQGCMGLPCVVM
GDP-bound HRAS wild-type protein, sequence (P01112 whole entry): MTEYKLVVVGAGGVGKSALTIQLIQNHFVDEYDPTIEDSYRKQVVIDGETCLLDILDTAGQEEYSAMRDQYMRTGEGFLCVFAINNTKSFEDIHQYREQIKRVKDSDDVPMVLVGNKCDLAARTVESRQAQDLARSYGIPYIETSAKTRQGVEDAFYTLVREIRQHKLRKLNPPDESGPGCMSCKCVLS
GDP-bound KRAS wild-type protein, sequence (P01116 whole entry): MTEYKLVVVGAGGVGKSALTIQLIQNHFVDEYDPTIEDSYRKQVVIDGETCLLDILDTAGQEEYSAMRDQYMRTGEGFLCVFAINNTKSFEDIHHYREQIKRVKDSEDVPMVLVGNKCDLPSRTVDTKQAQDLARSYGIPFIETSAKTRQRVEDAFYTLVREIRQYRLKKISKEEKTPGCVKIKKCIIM

Compound	Kd [1, 4]	Kd ([1]; SPR, Single Cycle Kinetics)	HRAS/KRAS (ratio of KD value for HRAS to KD value for KRAS) [2]	NRAS/KRAS (ratio of KD value for NRAS to KD value for KRAS) [3]	also measured
CCCN1C(=O)CN(C)C(=O)CN(CC)C(=O)[C@H]([C@@H](C)CC)NC(=O)[C@H](CC(C)C)N(C)C(=O)C[C@@H](C(=O)N2CCOCC2)N(C)C(=O)[C@H](C2CCCC2)N(C)C(=O)C2(CCCC2)NC(=O)[C@@H]2CCCN2C(=O)[C@H](CCc2ccc(C(F)(F)F)c(Cl)c2)NC(=O)CN(C)C(=O)[C@@H]1Cc1ccc(C(F)(F)F)cc1 [PP0145] ([NMeL]I[NEtG][Sar][NPrPhe(4-CF3)][Sar][hPhe(3-Cl-4-CF3)]P[Ac5c][NMeGly(cPent)][NMeD]-Morpholide; lactam N-11)	0.5 nM		B (a compound having 3 or more and less than 10 is denoted as B)	B (a compound having 3 or more and less than 10 is denoted as B)	
CC[C@H](C)[C@@H]1NC(=O)[C@H](CC(C)C)N(C)C(=O)C[C@@H](C(=O)N2CCOCC2)N(C)C(=O)[C@H](C2CCCC2)N(C)C(=O)C2(CCCC2)NC(=O)[C@@H]2CCCN2C(=O)[C@H](CCc2cc(F)c(C(F)(F)F)c(F)c2)NC(=O)CN(C)C(=O)[C@H](Cc2ccc(C(F)(F)F)cc2)N2CCCC[C@@H](C2=O)N(C)C(=O)[C@H](C)NC1=O [PP0543]	1 nM				HRAS/KRAS (ratio of KD value with respect to HRAS to KD value with respect to KRAS) [2]: B (a compound having 3 or more and less than 10 is denoted as B); NRAS/KRAS (ratio of KD value with respect to NRAS to KD value with respect to KRAS) [3]: B (a compound having 3 or more and less than 10 is denoted as B)
CCCN1C(=O)[C@@H]2CCN2C(=O)[C@H](C)N(C)C(=O)[C@H]([C@@H](C)CC)NC(=O)[C@H](CC(C)C)N(C)C(=O)C[C@@H](C(=O)N2CCOCC2)N(C)C(=O)[C@H](C2CCCC2)N(C)C(=O)C2(CCC2)NC(=O)[C@@H]2CCCN2C(=O)[C@H](CCc2ccc(C(F)(F)F)c(Cl)c2)NC(=O)CN(C)C(=O)[C@@H]1Cc1ccc(C(F)(F)F)cc1 [PP0198] ([NMeL]I[NMeA][Aze][NPrPhe(4-CF3)][Sar][hPhe(3-Cl-4-CF3)]P[Ac4c][NMeGly(cPent)][NMeD]-Morpholide; lactam N-11)	0.19 nM		B (a compound having 3 or more and less than 10 is denoted as B)	C (A compound having a KD ratio of 0.1 or more and less than 3 is denoted as C)	
CCCN1C(=O)CN(C)C(=O)CN(C)C(=O)[C@H]([C@@H](C)CC)NC(=O)[C@H](CC(C)C)N(C)C(=O)C[C@@H](C(=O)N2CCOCC2)NC(=O)[C@H](C2CCCC2)N(C)C(=O)C2(CCC2)NC(=O)[C@@H]2C[C@@H](OCC)CN2C(=O)[C@H](CCc2ccc(C(F)(F)F)c(Cl)c2)NC(=O)CN(C)C(=O)[C@@H]1Cc1ccc(C(F)(F)F)cc1 [PP0324] ([NMeL]I[Sar][Sar][NPrPhe(4-CF3)][Sar][hPhe(3-Cl-4-CF3)][Hyp](Et)[Ac4c][NMeGly(cPent)]D-Morpholide; lactam N-11)	0.41 nM		B (a compound having 3 or more and less than 10 is denoted as B)	B (a compound having 3 or more and less than 10 is denoted as B)	
CC[C@H](C)[C@@H]1NC(=O)[C@H](CC(C)C)N(C)C(=O)C[C@@H](C(=O)N2CCOCC2)N(C)C(=O)[C@H]([C@@H](C)CC)N(C)C(=O)C2(CCCC2)NC(=O)[C@@H]2CCCN2C(=O)[C@H](CCc2ccc(C(F)(F)F)c(Cl)c2)NC(=O)CN(C)C(=O)[C@H](Cc2ccc(C)cc2)N(CC)C(=O)CN(C)C(=O)CN(C)C1=O [PP0043] ([NMeL]I[Sar][Sar][NEtPhe(4-Me)][Sar][hPhe(3-Cl-4-CF3)]P[Ac5c][NMeI][NMeD]-Morpholide; lactam N-11)	0.87 nM		C (A compound having a KD ratio of 0.1 or more and less than 3 is denoted as C)	C (A compound having a KD ratio of 0.1 or more and less than 3 is denoted as C)	
CCCN1C(=O)CN(C)C(=O)[C@@H]2CCN2C(=O)[C@H]([C@@H](C)CC)NC(=O)[C@H](CC(C)C)N(C)C(=O)C[C@@H](C(=O)N(C)C)N(C)C(=O)[C@H](C2CCCC2)N(C)C(=O)C2(CCC2)NC(=O)[C@@H]2CCCN2C(=O)[C@H](CCc2ccc(C(F)(F)F)c(Cl)c2)NC(=O)CN(C)C(=O)[C@@H]1Cc1ccc(C(F)(F)F)cc1 [PP0430] ([NMeL]I[Aze][Sar][NPrPhe(4-CF3)][Sar][hPhe(3-Cl-4-CF3)]P[Ac4c][NMeGly(cPent)][NMeD]-NMe2; lactam N-11)	0.26 nM				HRAS/KRAS (ratio of KD value with respect to HRAS to KD value with respect to KRAS) [2]: B (a compound having 3 or more and less than 10 is denoted as B); NRAS/KRAS (ratio of KD value with respect to NRAS to KD value with respect to KRAS) [3]: B (a compound having 3 or more and less than 10 is denoted as B)
CC[C@H](C)[C@@H]1NC(=O)[C@H](COC)N(C)C(=O)C[C@@H](C(=O)N2CCOCC2)N(C)C(=O)[C@H](C2CCCC2)N(C)C(=O)C2(CCCC2)NC(=O)[C@@H]2CCCN2C(=O)[C@H](CCc2cc(F)c(C(F)(F)F)c(F)c2)NC(=O)CN(C)C(=O)[C@H](Cc2ccc(C(F)(F)F)cc2)N2CCCCC[C@@H](C2=O)N(C)C(=O)CN(C)C1=O [PP0845]		2.2 nM	B (a compound having 3 or more and less than 10 is denoted as B)	B (a compound having 3 or more and less than 10 is denoted as B)	
CCC[C@H]1C(=O)N[C@@H]([C@@H](C)CC)C(=O)N(C)CC(=O)N(C)[C@H]2C/C=C\CCN(C2=O)[C@@H](Cc2ccc(C(F)(F)F)cc2)C(=O)N(C)CC(=O)N[C@@H](CCc2cc(F)c(C(F)(F)F)c(F)c2)C(=O)N2C[C@H](OCC)C[C@H]2C(=O)NC2(CCC2)C(=O)N(C)[C@@H](C2CCCC2)C(=O)N(C)[C@H](C(=O)N(C)CC)CC(=O)N1C [PP1304, (2S,8S,12R,14S,20S,23S,27S,30S,36S,38Z)-20-cyclopentyl-8-[2-[3,5-difluoro-4-(trifluoromethyl)phenyl]ethyl]-12-ethoxy-N-ethyl-N,4,19,22,26,32,35-heptamethyl-30-[(1S)-1-methylpropyl]-3,6,9,15,18,21,25,28,31,34,42-undecaoxo-27-propyl-2-[[4-(trifluoromethyl)phenyl]methyl]spiro[1,4,7,10,16,19,22,26,29,32,35-undecazatricyclo[34.5.1.0^10,14]dotetracont-38-ene-17,1′-cyclobutane]-23-carboxamide]					Kd [1, 5]: 0.07 nM; HRAS/KRAS (ratio of KD value for HRAS to KD value for KRAS) ([2]; KD ratio class): A (a compound having 10 or more and less than 20 is denoted as A); NRAS/KRAS (ratio of KD value for NRAS to KD value for KRAS) ([3]; KD ratio class): A (a compound having 10 or more and less than 20 is denoted as A)
CC[C@H](C)[C@@H]1NC(=O)[C@H](CC2CC2)N(C)C(=O)C[C@@H](C(=O)N(C)CC)N(C)C(=O)[C@H](C2CCCC2)N(C)C(=O)C2(CCC2)NC(=O)[C@@H]2CC(F)(F)CN2C(=O)[C@H](CCc2cc(F)c(C(F)(F)F)c(F)c2)NC(=O)CN(C)C(=O)[C@H](Cc2ccc(C(F)(F)F)cc2)N2CC/C=C\C[C@@H](C2=O)N(C)C(=O)CN(C)C1=O [PP1538]					Kd [1, 5]: 0.086 nM; HRAS/KRAS (ratio of KD value for HRAS to KD value for KRAS) ([2]; KD ratio class): B (a compound having 3 or more and less than 10 is denoted as B); NRAS/KRAS (ratio of KD value for NRAS to KD value for KRAS) ([3]; KD ratio class): A (a compound having 10 or more and less than 20 is denoted as A)

The next lines start with results.

Kd [1, 4]	Kd ([1]; SPR, Single Cycle Kinetics)	Compound	HRAS/KRAS (ratio of KD value for HRAS to KD value for KRAS) [2]	NRAS/KRAS (ratio of KD value for NRAS to KD value for KRAS) [3]	also measured
	0.55 nM	CCO[C@@H]1C[C@H]2C(=O)NC3(CC(C)(C)C3)C(=O)N(C)[C@@H](C(CC)CC)C(=O)N(C)[C@H](C(=O)N(C)C)CC(=O)N(C)[C@@H](C(C)C)C(=O)N[C@@H]([C@@H](C)CC)C(=O)N(C)CC(=O)N(C)[C@H]3C/C=C\CCN(C3=O)[C@@H](Cc3ccc(C)cc3)C(=O)N(C)CC(=O)N[C@@H](CCc3ccc(C(F)(F)F)c(OC)c3)C(=O)N2C1 [PP2173]	A (a compound having 10 or more and less than 20 is denoted as A)	A (a compound having 10 or more and less than 20 is denoted as A)	
	0.065 nM	CCO[C@@H]1C[C@H]2C(=O)NC3(CCC3)C(=O)N(C)[C@@H](C3CCCC3)C(=O)N(C)[C@H](C(=O)N(C)CC)CC(=O)N(C)[C@H]3CCC/C=C/c4ccc(cc4)C[C@@H](C(=O)N(C)CC(=O)N[C@@H](CCc4ccc(C(F)(F)F)c(OC)c4)C(=O)N2C1)N1CC/C=C\C[C@@H](C1=O)N(C)C(=O)CN(C)C(=O)[C@H]([C@@H](C)CC)NC3=O [PP1834]			HRAS/KRAS (KD ratio) ([2]; ratio of KD for GDP-bound HRAS wild-type protein to KD for KRAS): B (a compound having 3 or more and less than 10 is denoted as B); NRAS/KRAS (KD ratio) ([3]; ratio of KD for GDP-bound NRAS wild-type protein to KD for KRAS): A (a compound having 10 or more and less than 20 is denoted as A)
	0.34 nM	CCC[C@H]1C(=O)N[C@@H]([C@@H](C)CC)C(=O)N(C)CC(=O)N(C)[C@H]2C/C=C\CCN(C2=O)[C@@H](Cc2ccc(C)cc2)C(=O)N(C)CC(=O)N[C@@H](CCc2ccc(C(F)(F)F)c(Cl)c2)C(=O)N2C[C@H](CC)C[C@H]2C(=O)NC2(CC(C)(C)C2)C(=O)N(C)[C@@H](C2CCCC2)C(=O)N(C)[C@H](C(=O)N(C)C)CC(=O)N1C [PP2212]	B (a compound having 3 or more and less than 10 is denoted as B)	A (a compound having 10 or more and less than 20 is denoted as A)	
	0.18 nM	CCC[C@H]1C(=O)N[C@@H]([C@@H](C)CC)C(=O)N(C2CC2)CC(=O)N(C)[C@H]2C/C=C\CCN(C2=O)[C@@H](Cc2ccc(C(F)(F)F)cc2)C(=O)N(C)CC(=O)N[C@@H](CCc2ccc(C(F)(F)F)c(OC)c2)C(=O)N2C[C@H](OCC)C[C@H]2C(=O)NC2(CC(C)(C)C2)C(=O)N(C)[C@@H](C2CCCC2)C(=O)N(C)[C@H](C(=O)N(C)C)CC(=O)N1C [PP2105]	A (a compound having 10 or more and less than 20 is denoted as A)	A (a compound having 10 or more and less than 20 is denoted as A)	
